Measured values as given in PubChem BioAssay (NCI).
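Each compound was tested at five concentrations against cells in 96-well plates for 48 hours. TGI: concentration producing complete growth inhibition.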

Experiments:
Assay in all cases: NCI tumour cell line growth inhibition, 48 h
A549 NSCLC = tested on: A549 NSCLC
CAKI-1 renal = tested on: CAKI-1 renal
COLO 205 colon = tested on: COLO 205 colon
DLD-1 colon = tested on: DLD-1 colon
DMS 114 small cell lung = tested on: DMS 114 small cell lung
DMS 273 small cell lung = tested on: DMS 273 small cell lung
HCC-2998 colon = tested on: HCC-2998 colon
HCT-116 colon = tested on: HCT-116 colon
HCT-15 colon = tested on: HCT-15 colon
HL-60(TB) leukemia = tested on: HL-60(TB) leukemia
HOP-18 NSCLC = tested on: HOP-18 NSCLC
HOP-62 NSCLC = tested on: HOP-62 NSCLC
HOP-92 NSCLC = tested on: HOP-92 NSCLC
HT29 colon = tested on: HT29 colon
IGROV1 ovarian = tested on: IGROV1 ovarian
KM12 colon = tested on: KM12 colon
KM20L2 colon = tested on: KM20L2 colon
LOX IMVI melanoma = tested on: LOX IMVI melanoma
M19-MEL melanoma = tested on: M19-MEL melanoma
MALME-3M melanoma = tested on: MALME-3M melanoma
MCF7 breast = tested on: MCF7 breast
NCI-H226 lung = tested on: NCI-H226 lung
NCI-H460 lung = tested on: NCI-H460 lung
NCI/ADR-RES ovarian = tested on: NCI/ADR-RES ovarian
OVCAR-3 ovarian = tested on: OVCAR-3 ovarian
OVCAR-4 ovarian = tested on: OVCAR-4 ovarian
OVCAR-8 ovarian = tested on: OVCAR-8 ovarian
RPMI-8226 leukemia = tested on: RPMI-8226 leukemia
SF-268 CNS = tested on: SF-268 CNS
SF-295 CNS = tested on: SF-295 CNS
SF-539 CNS = tested on: SF-539 CNS
SK-MEL-2 melanoma = tested on: SK-MEL-2 melanoma
SK-MEL-5 melanoma = tested on: SK-MEL-5 melanoma
SK-OV-3 ovarian = tested on: SK-OV-3 ovarian
SN12C renal = tested on: SN12C renal
SN12K1 renal = tested on: SN12K1 renal
SNB-19 CNS = tested on: SNB-19 CNS
SNB-78 CNS = tested on: SNB-78 CNS
SW-620 colon = tested on: SW-620 colon
UACC-62 melanoma = tested on: UACC-62 melanoma
UO-31 renal = tested on: UO-31 renal
XF 498 CNS = tested on: XF 498 CNS

Structure (SMILES): Nc1ncnc2c1ncn2C1C(O)C=C(CO)C1O (configuration not stated)
- TGI (A549 NSCLC): > 625 µM
- TGI (CAKI-1 renal): > 625 µM
- TGI (COLO 205 colon): > 625 µM
- TGI (DLD-1 colon): > 625 µM
- TGI (DMS 114 small cell lung): > 625 µM
- TGI (DMS 273 small cell lung): > 625 µM
- TGI (HCC-2998 colon): > 625 µM
- TGI (HCT-116 colon): > 625 µM
- TGI (HCT-15 colon): > 625 µM
- TGI (HL-60(TB) leukemia): > 625 µM
- TGI (HOP-18 NSCLC): > 625 µM
- TGI (HOP-62 NSCLC): > 625 µM
- TGI (HOP-92 NSCLC): > 625 µM
- TGI (HT29 colon): > 625 µM
- TGI (IGROV1 ovarian): > 625 µM
- TGI (KM12 colon): > 625 µM
- TGI (KM20L2 colon): > 625 µM
- TGI (LOX IMVI melanoma): > 625 µM
- TGI (M19-MEL melanoma): > 625 µM
- TGI (MALME-3M melanoma): > 625 µM
- TGI (MCF7 breast): > 625 µM
- TGI (NCI-H226 lung): > 625 µM
- TGI (NCI-H460 lung): > 625 µM
- TGI (NCI/ADR-RES ovarian): > 625 µM
- TGI (OVCAR-3 ovarian): > 625 µM
- TGI (OVCAR-4 ovarian): > 625 µM
- TGI (OVCAR-8 ovarian): > 625 µM
- TGI (RPMI-8226 leukemia): > 625 µM
- TGI (SF-268 CNS): > 625 µM
- TGI (SF-295 CNS): > 625 µM
- TGI (SF-539 CNS): > 625 µM
- TGI (SK-MEL-2 melanoma): > 625 µM
- TGI (SK-MEL-5 melanoma): > 625 µM
- TGI (SK-OV-3 ovarian): > 625 µM
- TGI (SN12C renal): > 625 µM
- TGI (SN12K1 renal): > 625 µM
- TGI (SNB-19 CNS): > 625 µM
- TGI (SNB-78 CNS): > 625 µM
- TGI (SW-620 colon): > 625 µM
- TGI (UACC-62 melanoma): > 625 µM
- TGI (UO-31 renal): > 625 µM
- TGI (XF 498 CNS): < 0.0625 µM
